ChEMBL document CHEMBL3885861, “Open TG-GATES”

Species: Rattus norvegicus
Assay: Open TG-GATES - Regimen: Single
Assay type: toxicity, organism-based, Sprague-Dawley
Parameters: regimen Single, gender Male, age 6 weeks
Conditions: in vivo, po, route gavage; for APTT / Bas / Eos / Fbg / Hb / Ht / Lym / MCH / MCHC / MCV / Mono / Neu / PT / Plat / RBC / Ret / WBC: tissue Blood; for KIDNEY_L / KIDNEY_R / KIDNEY_TOTAL: tissue Kidney; for LIVER: tissue Liver; for A/G / ALP / ALT / AST / BUN / CRE / Ca / Cl / DBIL / GLC / IP / K / LDH / Na / PL / RALB / TBIL / TC / TG / TP / gamma-GTP: tissue Plasma
[1] = 50 mg/kg, 3 h, dose level Middle
[2] = 50 mg/kg, 6 h, dose level Middle
[3] = 50 mg/kg, 9 h, dose level Middle
[4] = 50 mg/kg, 24 h, dose level Middle
[5] = 150 mg/kg, 3 h, dose level High
[6] = 150 mg/kg, 6 h, dose level High
[7] = 150 mg/kg, 9 h, dose level High
[8] = 150 mg/kg, 24 h, dose level High

## S=C=Nc1cccc2ccccc12 [1-NAPHTHYLISOTHIOCYANATE]
[1]
  TERMINAL_BW: 223.2 g
  APTT: 18.3 s
  Bas: 0.2%
  Eos: 1%
  Fbg: 237 mg/dL
  Hb: 13.7 g/dL
  Ht: 38.1%
  Lym: 76.6%
  MCH: 21.4 pg
  MCHC: 35.9%
  MCV: 59.7 fL
  Mono: 2.6%
  Neu: 18.8%
  PT: 11.6 s
  Plat: 118.2 x10_4/uL
  RBC: 639.2 x10_4/ul
  Ret: 8%
  WBC: 87.7 x10_2/uL
  KIDNEY_L: 0.9 g
  KIDNEY_R: 1 g
  KIDNEY_TOTAL: 1.9 g
  LIVER: 9.8 g
  A/G: 1.7
  ALP: 1022.2 IU/L
  ALT: 45 IU/L
  AST: 80.2 IU/L
  BUN: 9.6 mg/dL
  CRE: 0.4 mg/dL
  Ca: 10.8 mg/dL
  Cl: 102.8 meq/L
  DBIL: 0.1 mg/dL
  GLC: 240.6 mg/dL
  IP: 10.1 mg/dL
  K: 3.9 meq/L
  LDH: 179.8 IU/L
  Na: 141.4 meq/L
  PL: 154.2 mg/dL
  RALB: 3.6 g/dL
  TBIL: 0.1 mg/dL
  TC: 85.2 mg/dL
  TG: 77.4 mg/dL
  TP: 5.7 g/dL
  gamma-GTP: 0.8 IU/L
[2]
  TERMINAL_BW: 220.8 g
  APTT: 19.2 s
  Bas: 0%
  Eos: 0.4%
  Fbg: 239.8 mg/dL
  Hb: 13.9 g/dL
  Ht: 38.9%
  Lym: 79.2%
  MCH: 21.3 pg
  MCHC: 35.6%
  MCV: 59.8 fL
  Mono: 2.2%
  Neu: 17%
  PT: 12 s
  Plat: 126.8 x10_4/uL
  RBC: 651.4 x10_4/ul
  Ret: 7%
  WBC: 80.1 x10_2/uL
  KIDNEY_L: 1 g
  KIDNEY_R: 1 g
  KIDNEY_TOTAL: 1.9 g
  LIVER: 9.3 g
  A/G: 1.5
  ALP: 936.2 IU/L
  ALT: 36.6 IU/L
  AST: 72.8 IU/L
  BUN: 8.6 mg/dL
  CRE: 0.4 mg/dL
  Ca: 10.6 mg/dL
  Cl: 101.8 meq/L
  DBIL: 0.2 mg/dL
  GLC: 321.6 mg/dL
  IP: 10.2 mg/dL
  K: 4.2 meq/L
  LDH: 208 IU/L
  Na: 140.2 meq/L
  PL: 153.8 mg/dL
  RALB: 3.5 g/dL
  TBIL: 0.2 mg/dL
  TC: 84.6 mg/dL
  TG: 69.8 mg/dL
  TP: 5.8 g/dL
  gamma-GTP: 1 IU/L
[3]
  TERMINAL_BW: 214.5 g
  APTT: 17.9 s
  Bas: 0%
  Eos: 0.6%
  Fbg: 254 mg/dL
  Hb: 13.7 g/dL
  Ht: 38.2%
  Lym: 76.8%
  MCH: 22.3 pg
  MCHC: 35.9%
  MCV: 62 fL
  Mono: 2.2%
  Neu: 19.2%
  PT: 12 s
  Plat: 133.4 x10_4/uL
  RBC: 615.6 x10_4/ul
  Ret: 7.2%
  WBC: 80 x10_2/uL
  KIDNEY_L: 0.9 g
  KIDNEY_R: 0.9 g
  KIDNEY_TOTAL: 1.8 g
  LIVER: 8.8 g
  A/G: 1.6
  ALP: 826 IU/L
  ALT: 34.2 IU/L
  AST: 60 IU/L
  BUN: 10 mg/dL
  CRE: 0.4 mg/dL
  Ca: 10.7 mg/dL
  Cl: 102 meq/L
  DBIL: 0.2 mg/dL
  GLC: 321.8 mg/dL
  IP: 10 mg/dL
  K: 4.3 meq/L
  LDH: 150.4 IU/L
  Na: 141.2 meq/L
  PL: 147.8 mg/dL
  RALB: 3.5 g/dL
  TBIL: 0.2 mg/dL
  TC: 79.8 mg/dL
  TG: 72 mg/dL
  TP: 5.8 g/dL
  gamma-GTP: 1.2 IU/L
[4]
  TERMINAL_BW: 214.8 g
  APTT: 19.7 s
  Bas: 0.6%
  Eos: 0.4%
  Fbg: 357 mg/dL
  Hb: 14.3 g/dL
  Ht: 37.9%
  Lym: 48%
  MCH: 22.4 pg
  MCHC: 37.7%
  MCV: 59.2 fL
  Mono: 4.6%
  Neu: 44.6%
  PT: 12.2 s
  Plat: 131.9 x10_4/uL
  RBC: 639.6 x10_4/ul
  Ret: 6%
  WBC: 118.9 x10_2/uL
  KIDNEY_L: 1 g
  KIDNEY_R: 1 g
  KIDNEY_TOTAL: 2 g
  LIVER: 9.2 g
  A/G: 1.3
  ALP: 1257.2 IU/L
  ALT: 153.8 IU/L
  AST: 366.6 IU/L
  BUN: 10.4 mg/dL
  CRE: 0.4 mg/dL
  Ca: 10.4 mg/dL
  Cl: 98 meq/L
  DBIL: 0.9 mg/dL
  GLC: 177.6 mg/dL
  IP: 8.6 mg/dL
  K: 3.5 meq/L
  LDH: 617.6 IU/L
  Na: 141.4 meq/L
  PL: 218.2 mg/dL
  RALB: 3.2 g/dL
  TBIL: 1.1 mg/dL
  TC: 107 mg/dL
  TG: 64.8 mg/dL
  TP: 5.7 g/dL
  gamma-GTP: 6.2 IU/L
[5]
  TERMINAL_BW: 222.9 g
  APTT: 17.4 s
  Bas: 0.2%
  Eos: 0.8%
  Fbg: 243 mg/dL
  Hb: 13.9 g/dL
  Ht: 38.6%
  Lym: 77.8%
  MCH: 22.3 pg
  MCHC: 36%
  MCV: 61.8 fL
  Mono: 2.4%
  Neu: 18.2%
  PT: 11.8 s
  Plat: 124.6 x10_4/uL
  RBC: 626.2 x10_4/ul
  Ret: 8.3%
  WBC: 70.9 x10_2/uL
  KIDNEY_L: 0.9 g
  KIDNEY_R: 0.9 g
  KIDNEY_TOTAL: 1.9 g
  LIVER: 9.6 g
  A/G: 1.6
  ALP: 1056 IU/L
  ALT: 43 IU/L
  AST: 69.6 IU/L
  BUN: 9.2 mg/dL
  CRE: 0.4 mg/dL
  Ca: 10.9 mg/dL
  Cl: 103 meq/L
  DBIL: 0.2 mg/dL
  GLC: 314.6 mg/dL
  IP: 11.1 mg/dL
  K: 3.9 meq/L
  LDH: 205.6 IU/L
  Na: 141.4 meq/L
  PL: 142.2 mg/dL
  RALB: 3.5 g/dL
  TBIL: 0.2 mg/dL
  TC: 78.6 mg/dL
  TG: 77.6 mg/dL
  TP: 5.7 g/dL
  gamma-GTP: 1 IU/L
[6]
  TERMINAL_BW: 220.5 g
  APTT: 19.3 s
  Bas: 0.4%
  Eos: 0.6%
  Fbg: 247.2 mg/dL
  Hb: 14.3 g/dL
  Ht: 40.2%
  Lym: 80.6%
  MCH: 21.5 pg
  MCHC: 35.6%
  MCV: 60.3 fL
  Mono: 2.4%
  Neu: 15.4%
  PT: 12.1 s
  Plat: 127.2 x10_4/uL
  RBC: 668 x10_4/ul
  Ret: 7.4%
  WBC: 75.2 x10_2/uL
  KIDNEY_L: 0.9 g
  KIDNEY_R: 0.9 g
  KIDNEY_TOTAL: 1.9 g
  LIVER: 9 g
  A/G: 1.5
  ALP: 846.6 IU/L
  ALT: 40.4 IU/L
  AST: 71.4 IU/L
  BUN: 10 mg/dL
  CRE: 0.4 mg/dL
  Ca: 10.7 mg/dL
  Cl: 101.2 meq/L
  DBIL: 0.3 mg/dL
  GLC: 371.2 mg/dL
  IP: 10.4 mg/dL
  K: 4.4 meq/L
  LDH: 188.4 IU/L
  Na: 141 meq/L
  PL: 149.2 mg/dL
  RALB: 3.6 g/dL
  TBIL: 0.2 mg/dL
  TC: 85 mg/dL
  TG: 55.4 mg/dL
  TP: 5.9 g/dL
  gamma-GTP: 1.2 IU/L
[7]
  TERMINAL_BW: 219.4 g
  APTT: 19.1 s
  Bas: 0.4%
  Eos: 0.6%
  Fbg: 251.8 mg/dL
  Hb: 14.3 g/dL
  Ht: 40.2%
  Lym: 77.6%
  MCH: 21.9 pg
  MCHC: 35.7%
  MCV: 61.4 fL
  Mono: 3%
  Neu: 18.4%
  PT: 12.1 s
  Plat: 126.7 x10_4/uL
  RBC: 655.2 x10_4/ul
  Ret: 7.1%
  WBC: 81.9 x10_2/uL
  KIDNEY_L: 1 g
  KIDNEY_R: 0.9 g
  KIDNEY_TOTAL: 1.9 g
  LIVER: 8.7 g
  A/G: 1.5
  ALP: 968.6 IU/L
  ALT: 40 IU/L
  AST: 63.8 IU/L
  BUN: 10.2 mg/dL
  CRE: 0.4 mg/dL
  Ca: 10.8 mg/dL
  Cl: 101.8 meq/L
  DBIL: 0.3 mg/dL
  GLC: 352.4 mg/dL
  IP: 10.4 mg/dL
  K: 4.5 meq/L
  LDH: 186.8 IU/L
  Na: 140.8 meq/L
  PL: 151.4 mg/dL
  RALB: 3.6 g/dL
  TBIL: 0.2 mg/dL
  TC: 83.4 mg/dL
  TG: 35.6 mg/dL
  TP: 5.9 g/dL
  gamma-GTP: 1 IU/L
[8]
  TERMINAL_BW: 214.2 g
  APTT: 21.2 s
  Bas: 0.6%
  Eos: 0.2%
  Fbg: 392.4 mg/dL
  Hb: 14.7 g/dL
  Ht: 38.5%
  Lym: 43%
  MCH: 21.6 pg
  MCHC: 38.2%
  MCV: 56.4 fL
  Mono: 5.6%
  Neu: 49.6%
  PT: 12.8 s
  Plat: 145.8 x10_4/uL
  RBC: 682.8 x10_4/ul
  Ret: 6%
  WBC: 79 x10_2/uL
  KIDNEY_L: 0.9 g
  KIDNEY_R: 0.9 g
  KIDNEY_TOTAL: 1.9 g
  LIVER: 8.6 g
  A/G: 1.3
  ALP: 1505.2 IU/L
  ALT: 131.6 IU/L
  AST: 349.2 IU/L
  BUN: 11.2 mg/dL
  CRE: 0.5 mg/dL
  Ca: 10.4 mg/dL
  Cl: 96.8 meq/L
  DBIL: 1.5 mg/dL
  GLC: 190.8 mg/dL
  IP: 9.2 mg/dL
  K: 3.8 meq/L
  LDH: 601.8 IU/L
  Na: 142.2 meq/L
  PL: 268 mg/dL
  RALB: 3.3 g/dL
  TBIL: 1.7 mg/dL
  TC: 129.6 mg/dL
  TG: 64.2 mg/dL
  TP: 5.8 g/dL
  gamma-GTP: 7.4 IU/L
